In test [1] the test system is neuronal cortical cells. Nature of the test: Glutamate toxicity assay on primary cortical neurons (neurite network, neurofilament immunostaining). Format: cell-based, rat. As to conditions: Baclofen 400 nM, Acamprosate 1.6 nM; glutamate 40 μM, 20 min. Here is the method: The efficacy of drug combinations of the invention is assessed on primary cortical neuron cells. The protocol which is used in these assays is the same as described in section A.I.2 above.
After 12 days of neuron culture, drugs of the candidate combinations are solved in culture medium (+0.1% DMSO). Candidate combinations are then pre-incubated with neurons for 1 hour before the Glutamate injury. One hour after incubation with, Glutamate is added for 20 min, to a final concentration of 40 μM, in presence of candidate combinations, in order to avoid further drug dilutions. At the end of the incubation, medium is changed with medium with candidate combination but without glutamate. The culture is fixed 24 hours after glutamate injury. MK801 (Dizocilpinehydrogen maleate, 77086-22-7-20 μM) is used as a positive control.
After permeabilization with saponin (Sigma), cells are blocked for 2 h with PBS containing 10% goat serum, then the cells are incubated with mouse monoclonal primary antibody against Neurofilament antibody (NF, Sigma).
Nuclei of cells are labeled by a fluorescent marker (Hoechst solution, SIGMA), and neurite network quantified. Six wells per condition are used to assess neuronal survival in 3 different cultures.

Test [2] has as its system rat primary cortical cells. Nature of the test: Toxicity of human Aβ1-42 peptide on primary cortical neuron cells: LDH release. In kind it is cell-based. Conditions: for effect on Aβ1-42 intoxication, LDH release (in words): Aβ1-42 10 μM, single drugs at the concentrations used in the combination. Here is the method:
Rat cortical neurons were cultured as described by Singer et al. (47). Briefly pregnant female rats of 15 days gestation were killed by cervical dislocation (Rats Wistar) and the foetuses were removed from the uterus. The cortex was removed and placed in ice-cold medium of Leibovitz (L15) containing 2% of Penicillin 10.000 U/ml and Streptomycin 10 mg/ml and 1% of bovine serum albumin (BSA). Cortexes were dissociated by trypsin for 20 min at 37° C. (0.05%). The reaction was stopped by the addition of Dulbecco's modified Eagle's medium (DMEM) containing DNasel grade II and 10% of foetal calf serum (FCS). Cells were then mechanically dissociated by 3 serial passages through a 10 ml pipette and centrifuged at 515×g for 10 min at +4° C. The supernatant was discarded and the pellet of cells was re-suspended in a defined culture medium consisting of Neurobasal supplemented with B27 (2%), L-glutamine (0.2 mM), 2% of PS solution and 10 ng/ml of BDNF. Viable cells were counted in a Neubauer cytometer using the trypan blue exclusion test. The cells were seeded at a density of 30 000 cells/well in 96 well-plates (wells were pre-coated with poly-L-lysine (10 μg/ml)) and were cultured at +37° C. in a humidified air (95%)/CO2 (5%) atmosphere.
Briefly, Aβ1-42 peptide was reconstituted in define culture medium at 40 μM (mother solution) and was slowly shaken at +37° C. for 3 days in dark. The control medium was prepared in the same conditions.
After 10 days of neuron culture, test compounds were solved in culture medium (+0.1% DMSO) and then pre-incubated with neurons for 1 hour before the Aβ1-42 application (in a final volume per culture well of 100 μl). One hour after test compound(s) incubation, 100 μl of Aβ1-42 peptide was added to a final concentration of 10 μM diluted in presence of drug(s), in order to avoid further test compound(s) dilutions. Cortical neurons were intoxicated for 24 hours. Three separate cultures were performed per condition, 6 wells per condition.
BDNF (50 ng/ml) and Estradiol-β (150 nM) were used as positive control and reference compounds respectively. Three separate cultures will be performed per condition, 12 wells per condition.
Estradiol-β at 150 nM was used as a positive control (FIG. 4).
Estradiol-β was solved in culture medium and pre-incubated for 1 h before the amyloid-β1-42 application.
The following conditions were assessed: • CONTROL PLAQUE: 12 wells/condition • Negative Control: medium alone+0.1% DMSO • Intoxication: amyloid-β1-42 (10 μM) for 24 h • Reference compound: Estradiol (150 nM) 1 hr. • DRUG PLATE: 6 wells/condition • Negative Control: medium alone+0.1% DMSO • Intoxication: amyloid-β1-42 (10 μM) for 24 h • Test compound(s): test compound(s)—1 hr followed by amyloid-β1-42 (10 μM) for 24 h Lactate Dehydrogenase (LDH) Activity Assay
24 hours after intoxication, the supernatant was taken off and analyzed with Cytotoxicity Detection Kit (LDH, Roche Applied Science, ref: 11644793001, batch: 11800300). This colorimetric assay for the quantification of cell toxicity is based on the measurement of lactate dehydrogenase (LDH) activity released from the cytosol of dying cells into the supernatant.
Data were expressed in percentage of control conditions (no intoxication, no amyloid=100%) in order to express the amyloid injury. All values were expressed as mean+/−SEM (s.e.mean) of the 3 cultures (n=6 wells per condition). Statistic analyses were done on the different conditions (ONE-WAY ANOVA followed by the Dunnett's test when it was allowed, Statview software version 5.0).
A general note: LDH leaks from cells whose membrane has failed.

SMILES strings stand for the structures.

On to `CC(=O)NCCCS(=O)(=O)O` [Acamprosate], for which the “effect on glutamate intoxication (in words)” value in test [1] is reported as “no significant effect”. For the same compound, the “prevention of Aβ1-42 intoxication by pre-treatment” value in test [2] (8 nM) turned out to be 99%. The “effect on Aβ1-42 intoxication, LDH release (in words)” value in test [2] was “no significant effect”.
With `NCC(CC(=O)O)c1ccc(Cl)cc1` (centres unmarked) [Baclofen], the “effect on glutamate intoxication (in words)” value in test [1] was “no significant effect”. In addition, the “effect on Aβ1-42 intoxication, LDH release (in words)” value in test [2] is recorded as “no significant effect”.

Values taken from patent US8741886B2, “Baclofen and acamprosate based therapy of neurological disorders” (Pharnext, priority 2011, dated 2014).
